Here are results for one compound from article PMC7837508, “Interactions of the Diazabicyclooctane Serine β-Lactamase Inhibitor ETX1317 with Target Enzymes” (ACS Infectious Diseases, 2020).

Assay [1] concerns CTX-M-14. The arrangement: method as in PMID 32658473. The settings on record: higher than that of avibactam; cited from earlier work.
For assay [2], the target named is T1, OXA-48 (Klebsiella pneumoniae, UniProt Q6XEC0).
T1 construct: made in house
The settings on record: OXA-48, ambient temperature, pH 7.0, nitrocefin; ref 6 and 7; cited from earlier work.

Assay [3] concerns the target T2, CTX-M-15 (Escherichia coli, UniProt Q9EXV5).
T2 construct: made in house
Particulars: CTX-M-15, ambient temperature, pH 7.0, nitrocefin; ref 6 and 7; cited from earlier work.

Assay [4] addresses T3, AmpC (Pseudomonas aeruginosa, UniProt P24735).
T3 construct: made in house
Description: Partition ratio measurement. Particulars: incubation 1 h, ambient temperature. The format is biochemical. As to the method:
(§1) Partition ratios were measured as described previously[10] at ambient temperature in Buffer A. ETX1317 was freshly dissolved in assay buffer and an arithmetic dilution series was prepared from 0 to 12 μM in 1.2 μM steps. Each of these was mixed with an equal volume of 6 μM β-lactamase. At each time point, the mixtures were diluted in buffer to 2-fold the final reaction concentration of enzyme. Then, 22.5 μL of enzyme + inhibitor solutions were mixed with 22.5 μL of 200 μM nitrocefin substrate in a clear polystyrene 384-well assay plate. The absorbance at 490 nm was monitored at 10-s intervals for 10 min with a Spectramax Plus 384 plate reader. The slopes of the progress curves (ΔA490/s) were calculated. The percent of the control value for each inhibitor concentration was plotted versus the inhibitor:enzyme molar ratio. A best-fit line was calculated with a fixed point at 100% on the y-axis.

Assay [5] concerns the target T4, SHV-5 (Klebsiella pneumoniae, UniProt P0A3M1).
T4 construct: made in house
Description: Partition ratio measurement. It is filed as biochemical. The settings on record: SHV-5, incubation 1 h, ambient temperature. As to the method: as §1

For assay [6], the target named is T2, CTX-M-15. Description: Partition ratio measurement. It is filed as biochemical. The settings on record: CTX-M-15, incubation 1 h, ambient temperature. As to the method:
as §1

Assay [7] concerns the target T1, OXA-48. Description: Partition ratio measurement. It is filed as biochemical. The settings on record: OXA-48, incubation 1 h, ambient temperature. As to the method:
as §1

The target of assay [8] is T5, KPC-2 (Klebsiella pneumoniae, UniProt Q9F663).
T5 construct: made in house
Description: Partition ratio measurement. It is filed as biochemical. As to the method:
as §1

T1 sequence (Q6XEC0 23-265, looked up, species assumed): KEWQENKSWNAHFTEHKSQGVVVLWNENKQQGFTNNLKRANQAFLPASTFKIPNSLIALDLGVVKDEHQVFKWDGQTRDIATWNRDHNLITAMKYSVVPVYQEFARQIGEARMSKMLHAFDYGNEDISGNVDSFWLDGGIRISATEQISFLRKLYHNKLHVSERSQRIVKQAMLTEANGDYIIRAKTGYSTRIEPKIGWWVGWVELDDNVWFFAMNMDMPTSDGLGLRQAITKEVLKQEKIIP
T2 sequence (Q9EXV5 29-291, species assumed): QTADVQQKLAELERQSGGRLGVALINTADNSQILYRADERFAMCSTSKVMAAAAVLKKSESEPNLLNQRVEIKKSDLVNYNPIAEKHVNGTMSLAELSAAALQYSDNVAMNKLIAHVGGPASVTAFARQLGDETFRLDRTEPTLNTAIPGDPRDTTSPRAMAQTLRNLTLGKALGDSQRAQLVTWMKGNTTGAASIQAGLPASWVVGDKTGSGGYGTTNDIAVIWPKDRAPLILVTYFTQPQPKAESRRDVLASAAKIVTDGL
T5 sequence (Q9F663 25-293, looked up, species assumed): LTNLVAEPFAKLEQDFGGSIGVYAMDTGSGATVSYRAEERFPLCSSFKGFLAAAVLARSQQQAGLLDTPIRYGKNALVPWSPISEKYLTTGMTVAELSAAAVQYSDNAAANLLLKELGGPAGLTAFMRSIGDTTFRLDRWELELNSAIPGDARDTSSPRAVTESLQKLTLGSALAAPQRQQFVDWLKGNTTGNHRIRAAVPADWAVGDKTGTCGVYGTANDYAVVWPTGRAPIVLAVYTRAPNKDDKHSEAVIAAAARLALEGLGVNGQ
T4 sequence (P0A3M1 22-286, species assumed): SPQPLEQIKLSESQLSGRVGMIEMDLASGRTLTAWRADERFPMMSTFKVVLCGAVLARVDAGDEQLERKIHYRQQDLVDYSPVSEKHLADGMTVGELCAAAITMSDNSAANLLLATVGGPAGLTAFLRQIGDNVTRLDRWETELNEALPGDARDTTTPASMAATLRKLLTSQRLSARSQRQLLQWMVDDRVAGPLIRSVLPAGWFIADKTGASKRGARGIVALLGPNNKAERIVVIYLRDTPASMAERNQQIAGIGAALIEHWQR
T3 sequence (P24735 27-397): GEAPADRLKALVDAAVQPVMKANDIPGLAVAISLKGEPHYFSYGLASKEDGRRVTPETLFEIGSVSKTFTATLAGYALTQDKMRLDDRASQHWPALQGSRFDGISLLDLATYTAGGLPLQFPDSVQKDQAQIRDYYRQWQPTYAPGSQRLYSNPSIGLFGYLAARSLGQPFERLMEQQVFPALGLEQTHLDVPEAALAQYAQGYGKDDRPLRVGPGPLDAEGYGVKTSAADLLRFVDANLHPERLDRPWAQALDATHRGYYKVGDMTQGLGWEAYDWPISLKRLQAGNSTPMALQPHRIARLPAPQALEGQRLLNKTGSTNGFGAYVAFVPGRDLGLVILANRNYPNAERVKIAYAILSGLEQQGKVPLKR

For the compound `CC1=C[C@@H](C(N)=O)N2C[C@@H]1N(O[C@H](F)C(=O)O)C2=O` [ETX1317], in assay [1], the “potency of CTX-M-14 inhibition relative to avibactam” value was “about 10 fold”. Further, the figures for the kinact/Ki in assay [2] and in assay [3] were 5.3 (±0.2) × 10^4 M^–1 s^–1 and 4.8 (±0.4) × 10^6 M^–1 s^–1, respectively. Moreover, the partition ratio in assay [4] amounted to 1.0; in assay [5] it was 0.9; in assay [6], 0.7; in assay [7], 1.1; in assay [8] (KPC-2, 15 min incubation (not shown)), 1.1; in assay [8] (KPC-2, incubation of enzyme and inhibitor 3 h, ambient temperature), 1.1.
